Data on one compound can be found in patent publication US11738007B2, “Treatment of glaucoma using endothelin receptor antagonists” (Perfuse Therapeutics, Inc., priority 2019, dated 2023).

One data set deals with T1, ETA receptor (Homo sapiens, UniProt P25101).
T1 sequence (P25101 21-427): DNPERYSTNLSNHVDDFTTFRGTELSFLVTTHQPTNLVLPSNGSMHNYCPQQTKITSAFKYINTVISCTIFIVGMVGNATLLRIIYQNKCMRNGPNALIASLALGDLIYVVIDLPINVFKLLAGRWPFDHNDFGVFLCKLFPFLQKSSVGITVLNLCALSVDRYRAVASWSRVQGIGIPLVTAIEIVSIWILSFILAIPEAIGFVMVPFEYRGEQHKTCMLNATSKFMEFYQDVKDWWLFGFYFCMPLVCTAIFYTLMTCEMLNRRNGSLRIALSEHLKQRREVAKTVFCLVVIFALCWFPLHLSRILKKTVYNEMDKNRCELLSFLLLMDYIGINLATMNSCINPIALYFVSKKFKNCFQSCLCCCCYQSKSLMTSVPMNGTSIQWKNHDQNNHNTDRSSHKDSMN
The experiment in a line: Functional potency for ETA receptor. Type of data set: biochemical. An excerpt: (§1) In the above table, the physicochemical data, e.g., solubility, were obtained following standard protocols known in the field (see, e.g., Reis et al., Mini Rev Med Chem., 2010, 10(11):1071-6; Avdeef et al., Expert Opin Drug Metab Toxicol., 2005, 1(2):325-42; Bharate et al., Comb Chem High Throughput Screen., 2016, 19(6):461-9; and Jain et al., J Pharm Biomed Anal., 2013, 86:11-35); and the biochemical data, i.e., potency for ETA/ETB, were obtained following the protocols known in the field (see, e.g., Kirkby et al., Br J Pharmacol., 2008, 153(6):1105-19; and Maguire et al., Br J Pharmacol., 2014, 171(24):5555-72).

Data set [1] is described as follows: Pharmacokinetics after intravitreal administration in the rabbit. Type of data set: in vivo, rabbits (Oryctolagus cuniculus). The following applies: plasma and ocular tissues, FIG. 9A-9D. On the procedure: To determine the pharmacokinetic and safety properties of Edonentan following intravitreal administration in the rabbit, rabbits (Oryctolagus cuniculus) received bilateral intravitreal injections (20 μL injection volume/eye). Following the injections, animals were tranquilized with a ketamine/xylazine cocktail, and then the animals were euthanized with an overdose of sodium pentobarbital (Euthasol). Animals designated for the pharmacokinetic analysis were euthanized at different time points (e.g. 12, 16, 24, 36 and 48 hours). At least 1.0 mL of whole blood was drawn from the marginal ear vein or cardiac puncture (terminal bleed only) into K2EDTA tubes for plasma collection and processed for analytical analysis.
Immediately following euthanasia, the eyes was enucleated. Aqueous humor from both eyes was removed via syringe and snap frozen for analysis. Eyes were dissected when frozen to isolate various ocular tissues and minimize drug diffusion to adjacent tissues. Tissues from left and right eyes were collected in separate vials for analysis. List of tissues collected include plasma and aqueous humor, iris/ciliary body (ICB), retina, vitreous humor and RPE/choroid. The pharmacokinetic properties of intravitreally delivered Edonentan in rabbits are shown in FIG. 9A, FIG. 9B, FIG. 9C and FIG. 9D.

The test system of data set [2] is elevated intraocular pressure (IOP). The experiment in a line: Morrison's rat model of glaucoma (elevated IOP). Particulars: topical eye drops 100 μg per dose, five days a week, four weeks. The data set is classed as in vivo, Brown Norway rats. An excerpt:
Adult male and female retired breeder Brown Norway rats (approximate age groups of 8 to 11 months) were obtained from Envigo (Indianapolis, Ind.). Baseline IOP measurements and pattern electroretinogram (PERG) amplitudes were collected prior to the surgery for elevation of IOP (to ensure that the IOP and PERG amplitudes were in the expected range of values). IOP was elevated in one eye (left eye) of the rats, while the corresponding right eyes served as contralateral controls. The Morrison method to elevate IOP in rats was carried out by injection of 50 μL of hypertonic saline through the episcleral veins to sclerose the trabecular meshwork. IOP was measured twice a week throughout the entire duration of the experiment. […] After detecting an elevation of IOP for two consecutive days, topical administration of eye drops (20 μL (100 μg) per dose of the tested compounds in the IOP elevated eye) was commenced and carried out for five days a week for a total of four weeks. In the 4th week of treatment, PERG analysis was carried out and rats were sacrificed by an overdose of pentobarbital (Fatal-Plus). Aqueous humor was collected from the rat eyes, frozen and shipped for analysis. Retinal flat mounts were prepared, immunostained with the RGC marker, Brn3a antibody and surviving RGCs were counted in two eccentricities (central and peripheral). For this study, the Morrison's model was used to induce ocular hypertension in adult male retired breeder Brown Norway rats as previously described by Morrison et al., (Morrison J C, Moore […], Gold […], Johnson E C. A rat model of chronic pressure-induced optic nerve damage. Exp Eye Res. 1997; 64(1):85-96). The immunostained retinal flat mounts were obtained to measure the retinal ganglion cell (RGC) counts. To obtain immunostained retinal flat mounts, the animals were euthanized after the treatments and then their eyes were enucleated. The eye cups were fixed overnight at 4° C. in 4% paraformaldehyde (PFA) and retinal flat mounts were prepared for collecting images. The retinal ganglion cell (RGC) counting was conducted using the images of immunostained retinal flat mounts. The images were uploaded to ImageJ, a photo editor designed for biology research (Rasband, 1997-2018) and the labeled retinal ganglion cells were counted manually in two eccentricities (central and peripheral). […] Pattern ERG (PERG) was used to assess the RGC function. […] Briefly, PERG signals were acquired from a DTL-plus electrode placed on the lower part of the corneal surface and the PERG waves were analyzed using the EMWIN software (LKC). The difference between the amplitude of the major positive (P1) and negative (N2) waves were calculated to […] amplitude.

For a further data set, the target named is T2, ETB receptor (Homo sapiens, UniProt P24530).
T2 sequence (P24530 27-442): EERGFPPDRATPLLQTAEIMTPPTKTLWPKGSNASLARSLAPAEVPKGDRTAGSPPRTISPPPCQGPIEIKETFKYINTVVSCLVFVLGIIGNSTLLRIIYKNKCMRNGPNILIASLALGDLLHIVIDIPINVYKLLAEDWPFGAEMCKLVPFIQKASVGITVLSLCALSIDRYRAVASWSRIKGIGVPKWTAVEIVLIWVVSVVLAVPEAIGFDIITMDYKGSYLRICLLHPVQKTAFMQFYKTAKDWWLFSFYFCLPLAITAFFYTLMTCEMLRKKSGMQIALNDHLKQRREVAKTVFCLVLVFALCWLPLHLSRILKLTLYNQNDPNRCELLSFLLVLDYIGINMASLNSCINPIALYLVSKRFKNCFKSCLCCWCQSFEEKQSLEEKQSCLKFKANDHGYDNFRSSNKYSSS
The experiment in a line: Functional potency for ETB receptor. The data set is classed as biochemical.
Excerpt: as §1

The subject of the next data set is ETA/ETB receptor. Description: ETA/ETB selectivity (specificity). Type of data set: biochemical. Particulars: ETA versus ETB, rating in words.
Excerpt: as §1

SMILES strings stand for the structures.

For `Cc1onc(NS(=O)(=O)c2ccccc2-c2ccc(-c3ncco3)cc2CN(C)C(=O)CC(C)(C)C)c1C` [Edonentan, N-[[2′-[[(4,5-dimethyl-3-isoxazolyl)amino]sulfonyl]-4-(2-oxazolyl)[1,1′-biphenyl]-2-yl]methyl]-N,3,3-trimethylbutanamide], the IC50 against ETA receptor (functional potency) is 1.54 nM; against ETB receptor it was 590 nM. In addition, the “Functional Potency for ETA and ETB Receptors (rating)” value on ETA receptor (rating in words) is “High potency”. Also, the t1/2 result in data set [1] is “longer”. The “RGC function, pattern electroretinogram (PERG) changes” value in data set [2] is on record as “maintained RGC function”. In addition, the “Retinal ganglion cell (RGC) counts, peripheral retina” value in data set [2] is on record as “prevented RGC loss”. The “Specificity (rating)” value in the data set with ETA/ETB receptor is reported as “High specificity”.
